Here are results for 29 compounds from patent publication US7994185B2, “Benzene sulfonamide thiazole and oxazole compounds” (Glaxo Smith Kline LLC, priority 2008, dated 2011).

This assay has as its target T1, BRAFV600E full-length (amino acids 2-766) (Homo sapiens, UniProt P15056, V600E).
T1 construct: His6-tagged BRAFV600E full-length (amino acids 2-766); His6; made in house; host or cells: baculovirus expression system (insect cells)
Description: B-Raf Accelerated MEK ATPase assay (BRAMA). Type of assay: biochemical. As to conditions: categorized. As for the experimental part: Compounds of the present invention were tested for B-Raf protein serine kinase inhibitory activity in a B-Raf Accelerated MEK ATPase assay (BRAMA). […] The BRAMA assay is a high sensitivity assay which measures an intrinsic MEK-mediated ATP hydrolysis uncoupled from downstream ERK phosphorylation by coupling the formation of ADP to NADH oxidation through the enzymes pyruvate kinase and lactate dehydrogenase. When ADP production is initiated by addition of catalytic amounts of an activated Raf enzyme and non-phosphorylated MEK, one observes robust ADP production concomitant with Raf-mediated phosphorylation of MEK. The method is disclosed in: C. Rominger, M. Schaber, E. May. Assay for B-Raf Activity Based on Intrinsic MEK ATPase Activity.

The mark [1] stands for this setting: B-Raf Activity, Table 1a, highest pIC50 for the one or more runs.
[2] abbreviates: B-Raf pIC50, Table 1b, later runs, average pIC50 for the one or more runs.
[3] abbreviates: Table 1b, later runs, average pIC50 for the one or more runs, read-out: B-Raf pIC50 (converted).
Where [4] appears, read: Table 1a, highest pIC50 for the one or more runs, read-out: B-Raf Activity.

Where a name gives a salt, the structure may show the parent alone. Read-outs that look alike come from different tables or passages of the source.

T1 sequence (P15056 2-766 V600E): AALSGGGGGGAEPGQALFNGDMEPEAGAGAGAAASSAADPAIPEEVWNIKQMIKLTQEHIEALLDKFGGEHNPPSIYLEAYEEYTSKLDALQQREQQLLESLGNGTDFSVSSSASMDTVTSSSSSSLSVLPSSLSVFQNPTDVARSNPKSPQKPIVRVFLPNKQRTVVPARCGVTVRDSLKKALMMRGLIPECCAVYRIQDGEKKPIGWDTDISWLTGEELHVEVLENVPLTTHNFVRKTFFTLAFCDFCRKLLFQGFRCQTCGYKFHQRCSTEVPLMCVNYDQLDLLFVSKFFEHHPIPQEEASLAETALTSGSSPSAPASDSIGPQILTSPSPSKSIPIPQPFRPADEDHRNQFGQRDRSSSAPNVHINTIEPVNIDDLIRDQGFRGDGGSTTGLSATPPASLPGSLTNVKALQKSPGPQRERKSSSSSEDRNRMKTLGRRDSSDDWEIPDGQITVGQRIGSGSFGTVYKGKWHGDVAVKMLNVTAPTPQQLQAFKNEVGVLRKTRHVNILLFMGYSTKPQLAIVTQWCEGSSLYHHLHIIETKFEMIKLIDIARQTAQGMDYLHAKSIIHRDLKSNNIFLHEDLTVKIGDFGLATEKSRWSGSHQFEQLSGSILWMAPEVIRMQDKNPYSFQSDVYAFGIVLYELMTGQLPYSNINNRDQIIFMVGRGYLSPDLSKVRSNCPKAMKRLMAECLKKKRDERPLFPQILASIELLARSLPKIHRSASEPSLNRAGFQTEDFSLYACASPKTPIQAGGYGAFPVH

Consider `CC(C)c1nc(-c2cccc(NS(=O)(=O)c3c(F)cccc3F)c2)c(-c2ccnc(NCCS(C)(=O)=O)n2)s1` [Example 1, 2,6-Difluoro-N-{3-[2-(1-methylethyl)-5-(2-{[2-(methylsulfonyl)ethyl]amino}-4-pyrimidinyl)-1,3-thiazol-4-yl]phenyl}benzenesulfonamide], for which the IC50 runs as follows: under setting [1], less than 100 nM; under setting [2], not above 3.16 nM. With `CC(C)c1nc(-c2ccc(F)c(NS(=O)(=O)c3c(F)cccc3F)c2)c(-c2ccnc(NCCS(C)(=O)=O)n2)s1` [Example 8, 2,6-Difluoro-N-{2-fluoro-5-[2-(1-methylethyl)-5-(2-{[2-(methylsulfonyl)ethyl]amino}-4-pyrimidinyl)-1,3-thiazol-4-yl]phenyl}benzenesulfonamide], the IC50 under setting [1] is less than 100 nM and the IC50 under setting [3] was 3.16 to 31.6 nM. On the same counts, the results for `CC(C)(C)c1nc(-c2ccc(F)c(NS(=O)(=O)c3c(F)cccc3F)c2)c(-c2ccnc(NCCS(C)(=O)=O)n2)s1` [Example 10, N-{5-[2-(1,1-Dimethylethyl)-5-(2-{[2-(methylsulfonyl)ethyl]amino}-4-pyrimidinyl)-1,3-thiazol-4-yl]-2-fluorophenyl}-2,6-difluorobenzenesulfonamide] are less than 100 nM and 3.16 to 31.6 nM. With `CC(C)c1nc(-c2cccc(NS(=O)(=O)c3c(F)cccc3F)c2F)c(-c2ccnc(NCCS(C)(=O)=O)n2)s1` [Example 11, 2,6-Difluoro-N-{2-fluoro-3-[2-(1-methylethyl)-5-(2-{[2-(methylsulfonyl)ethyl]amino}-4-pyrimidinyl)-1,3-thiazol-4-yl]phenyl}benzenesulfonamide], the IC50 is less than 100 nM under setting [1] and not above 3.16 nM under setting [2]. For `CC(C)c1nc(-c2ccc(F)c(NS(=O)(=O)c3cccc(F)c3)c2)c(-c2ccnc(N)n2)s1` [Example 84, N-{5-[5-(2-Amino-4-pyrimidinyl)-2-(1-methylethyl)-1,3-thiazol-4-yl]-2-fluorophenyl}-3-fluorobenzenesulfonamide] the same measures were 100 to 1000 nM and 31.6 to 1000 nM. Consider `CC(C)c1nc(-c2cccc(NS(=O)(=O)c3cccc(F)c3)c2)c(-c2ccnc(NCC(N)=O)n2)s1` [Example 87, N^2-{4-[4-(3-{[(3-Fluorophenyl)sulfonyl]amino}phenyl)-2-(1-methylethyl)-1,3-thiazol-5-yl]-2-pyrimidinyl}glycinamide], for which the IC50 by setting is: under setting [1], less than 100 nM; under setting [3], 3.16 to 31.6 nM. For `CC(C)c1nc(-c2cccc(NS(=O)(=O)c3cccc(F)c3)c2)c(-c2ccnc(NCCCN(C)C)n2)s1` [Example 88, N-{3-[5-(2-{[3-(Dimethylamino)propyl]amino}-4-pyrimidinyl)-2-(1-methylethyl)-1,3-thiazol-4-yl]phenyl}-3-fluorobenzenesulfonamide] the same measures were less than 100 nM and 3.16 to 31.6 nM. Turning to `CC(C)c1nc(-c2cccc(NS(=O)(=O)c3cccc(F)c3)c2)c(-c2ccnc(NC3CC3)n2)s1` [Example 89, N-{3-[5-[2-(Cyclopropylamino)-4-pyrimidinyl]-2-(1-methylethyl)-1,3-thiazol-4-yl]phenyl}-3-fluorobenzenesulfonamide], the IC50 was less than 100 nM under setting [1] and 31.6 to 1000 nM under setting [2]. For `CC(C)c1nc(-c2cccc(NS(=O)(=O)c3c(F)cccc3F)c2)c(-c2ccnc(N)n2)s1` [Example 90, N-{3-[5-(2-Amino-4-pyrimidinyl)-2-(1-methylethyl)-1,3-thiazol-4-yl]phenyl}-2,6-difluorobenzenesulfonamide] the same measures were less than 100 nM and 31.6 to 1000 nM. On the same counts, the results for `Nc1nccc(-c2scnc2-c2cccc(NS(=O)(=O)c3c(F)cccc3F)c2)n1` [Example 114, N-{3-[5-(2-Amino-4-pyrimidinyl)-1,3-thiazol-4-yl]phenyl}-2,6-difluorobenzenesulfonamide] are 100 to 1000 nM and 31.6 to 1000 nM. For the compound `CC(C)(C)c1nc(-c2cccc(NS(=O)(=O)c3cc(F)ccc3F)c2)c(-c2ccnc(N)n2)s1` [Example 116, N-{3-[5-(2-Amino-4-pyrimidinyl)-2-(1,1-dimethylethyl)-1,3-thiazol-4-yl]phenyl}-2,5-difluorobenzenesulfonamide], the IC50 is, setting by setting: under setting [1], less than 100 nM; under setting [3], 3.16 to 31.6 nM. For the compound `CC(C)c1nc(-c2ccc(F)c(NS(=O)(=O)c3c(F)cccc3F)c2)c(-c2ccnc(NCCCN(C)C)n2)s1` [Example 169], under setting [4], the IC50 was more than 1000 nM. `CC(C)c1nc(-c2ccc(F)c(NS(=O)(=O)c3c(F)cccc3F)c2)c(-c2ccnc(NCCN3CCCC3)n2)s1` [Example 170]: the IC50 under setting [4] is more than 1000 nM.

For the compound `CC(C)c1nc(-c2ccc(F)c(NS(=O)(=O)c3c(F)cccc3F)c2)c(-c2ccnc(NCCN3CCOCC3)n2)s1` [Example 171], the IC50 under setting [4] is 100 to 1000 nM.

`CC(C)c1nc(-c2ccc(F)c(NS(=O)(=O)c3c(F)cccc3F)c2)c(-c2ccnc(NCCOCCO)n2)s1` [Example 172]: the IC50 under setting [4] fell in the range of 100 to 1000 nM. Same read-out and setting: for `CC(C)c1nc(-c2ccc(F)c(NS(=O)(=O)c3c(F)cccc3F)c2)c(-c2ccnc(NCCCCN(C)C)n2)s1` [Example 173] the value was 100 to 1000 nM; for `COCCCNc1nccc(-c2sc(C(C)C)nc2-c2ccc(F)c(NS(=O)(=O)c3c(F)cccc3F)c2)n1` [Example 174], 100 to 1000 nM. On to `CCc1nc(-c2cccc(NS(=O)(=O)c3c(F)cccc3F)c2F)c(-c2ccnc(N)n2)s1` [Example 257, N-{3-[5-(2-amino-4-pyrimidinyl)-2-ethyl-1,3-thiazol-4-yl]-2-fluorophenyl}-2,6-difluorobenzenesulfonamide], for which the IC50 under setting [3] is 3.16 to 31.6 nM. As to `CC(C)(C)c1nc(-c2c(F)ccc(NS(=O)(=O)c3cc(F)ccc3F)c2F)c(-c2ccncn2)s1` [Example 260, N-{3-[2-(1,1-dimethylethyl)-5-(4-pyrimidinyl)-1,3-thiazol-4-yl]-2,4-difluorophenyl}-2,5-difluorobenzenesulfonamide], the IC50 under setting [2] was not above 3.16 nM. On the same count and under the same terms, then `CC(C)(C)c1nc(-c2cccc(NS(=O)(=O)c3ccco3)c2Cl)c(-c2ccncn2)s1` [Example 261, N-{2-chloro-3-[2-(1,1-dimethylethyl)-5-(4-pyrimidinyl)-1,3-thiazol-4-yl]phenyl}-2-furansulfonamide], with not above 3.16 nM; and `CC(C)(C)c1nc(-c2cccc(NS(=O)(=O)c3ccoc3)c2Cl)c(-c2ccncn2)s1` [Example 268, N-{2-chloro-3-[2-(1,1-dimethylethyl)-5-(4-pyrimidinyl)-1,3-thiazol-4-yl]phenyl}-3-furansulfonamide], with not above 3.16 nM. On the same count and under the same terms, for `CS(=O)(=O)NCc1nccc(-c2sc(N3CCOCC3)nc2-c2cccc(NS(=O)(=O)c3cc(F)ccc3F)c2F)n1` [Example 273, 2,5-difluoro-N-{2-fluoro-3-[5-(2-{[(methylsulfonyl)amino]methyl}-4-pyrimidinyl)-2-(4-morpholinyl)-1,3-thiazol-4-yl]phenyl}benzenesulfonamide] the value was not above 3.16 nM. On to `O=C(NCc1nccc(-c2sc(N3CCOCC3)nc2-c2cccc(NS(=O)(=O)c3cc(F)ccc3F)c2F)n1)C1CCCC1` [Example 274, N-({4-[4-(3-{[(2,5-difluorophenyl)sulfonyl]amino}-2-fluorophenyl)-2-(4-morpholinyl)-1,3-thiazol-5-yl]-2-pyrimidinyl}methyl)cyclopentanecarboxamide], for which the IC50 under setting [3] was 3.16 to 31.6 nM.

Take `CC(C)C(=O)NCc1nccc(-c2sc(N3CCOCC3)nc2-c2cccc(NS(=O)(=O)c3cc(F)ccc3F)c2F)n1` [Example 275, N-({4-[4-(3-{[(2,5-difluorophenyl)sulfonyl]amino}-2-fluorophenyl)-2-(4-morpholinyl)-1,3-thiazol-5-yl]-2-pyrimidinyl}methyl)-2-methylpropanamide]: the IC50 under setting [3] was 3.16 to 31.6 nM. Same read-out and setting: then `CC(=O)NCc1nccc(-c2sc(N3CCOCC3)nc2-c2cccc(NS(=O)(=O)c3cc(F)ccc3F)c2F)n1` [Example 276, N-({4-[4-(3-{[(2,5-difluorophenyl)sulfonyl]amino}-2-fluorophenyl)-2-(4-morpholinyl)-1,3-thiazol-5-yl]-2-pyrimidinyl}methyl)acetamide], with 3.16 to 31.6 nM; and `C=Cc1nccc(-c2sc(N3CCOCC3)nc2-c2cccc(NS(=O)(=O)c3cc(F)ccc3F)c2F)n1` [Example 277, N-{3-[5-(2-ethenyl-4-pyrimidinyl)-2-(4-morpholinyl)-1,3-thiazol-4-yl]-2-fluorophenyl}-2,5-difluorobenzenesulfonamide], with 3.16 to 31.6 nM; and `Nc1nccc(-c2sc(C3CCOCC3)nc2-c2cccc(NS(=O)(=O)c3ccccn3)c2F)n1` [Example 279, N-{3-[5-(2-amino-4-pyrimidinyl)-2-(tetrahydro-2H-pyran-4-yl)-1,3-thiazol-4-yl]-2-fluorophenyl}-2-pyridinesulfonamide], with 3.16 to 31.6 nM. Compound `Cn1ccc(S(=O)(=O)Nc2cccc(-c3nc(C(C)(C)C)sc3-c3ccnc(N)n3)c2F)n1` [Example 288, N-{3-[5-(2-amino-4-pyrimidinyl)-2-(1,1-dimethylethyl)-1,3-thiazol-4-yl]-2-fluorophenyl}-1-methyl-1H-pyrazole-3-sulfonamide hydrochloride] displayed an IC50 under setting [2] of 31.6 to 1000 nM. For the compound `Cn1ccc(S(=O)(=O)Nc2cccc(-c3nc(C4CCOCC4)sc3-c3ccnc(N)n3)c2F)n1` [Example 289, N-{3-[5-(2-amino-4-pyrimidinyl)-2-(tetrahydro-2H-pyran-4-yl)-1,3-thiazol-4-yl]-2-fluorophenyl}-1-methyl-1H-pyrazole-3-sulfonamide hydrochloride], under setting [2], the IC50 lay in the range of 31.6 to 1000 nM.
